Tests used:
Assay type in all cases: biochemical
SIK2 = SIK2 (Homo sapiens, UniProt Q9H0K1); experiment: Enzymatic activity assay SIK2, RapidFire mass spectrometry (phosphorylation of CHK-peptide); settings: RapidFire MS, inhibition of SIK2; read-out: SIK2 RF IC50
Procedure, shortened: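 Read-out is the summed phospho-species fraction of CHK-peptide by RapidFire mass spectrometry, normalized between DMSO and 1 μM YKL-05-099. The reaction used 0.5 nM SIK2, 100 μM ATP and 10 μM peptide solutions in HEPES pH 7.0/10 mM magnesium acetate for 45 min at ambient temperature.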

SIK3 = SIK3 (Homo sapiens, UniProt Q9Y2K2); experiment: Enzymatic activity assay SIK3, RapidFire mass spectrometry (phosphorylation of CHK-peptide); settings: RapidFire MS, inhibition of SIK3; read-out: SIK3 RF IC50
Procedure, shortened: (§1)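 Human SIK1/2/3, 5/0.5/1.5 nM; 12.5 mM HEPES pH 7.0, 10 mM Mg acetate, 0.005% BSA. 30 min cpd pre-inc, + CHK-peptide (10 μM soln) + ATP (100 μM soln), 45 min RT. Formic acid stop; RF-MS phospho ratio; IC50.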

SIK1 = SIK1 (Homo sapiens, UniProt P57059); experiment: Enzymatic activity assay SIK1, RapidFire mass spectrometry (phosphorylation of CHK-peptide); settings: RapidFire MS, inhibition of SIK1; read-out: SIK1 RF IC50
Procedure, shortened: as §1

SIK3, sequence (Q9Y2K2 whole entry): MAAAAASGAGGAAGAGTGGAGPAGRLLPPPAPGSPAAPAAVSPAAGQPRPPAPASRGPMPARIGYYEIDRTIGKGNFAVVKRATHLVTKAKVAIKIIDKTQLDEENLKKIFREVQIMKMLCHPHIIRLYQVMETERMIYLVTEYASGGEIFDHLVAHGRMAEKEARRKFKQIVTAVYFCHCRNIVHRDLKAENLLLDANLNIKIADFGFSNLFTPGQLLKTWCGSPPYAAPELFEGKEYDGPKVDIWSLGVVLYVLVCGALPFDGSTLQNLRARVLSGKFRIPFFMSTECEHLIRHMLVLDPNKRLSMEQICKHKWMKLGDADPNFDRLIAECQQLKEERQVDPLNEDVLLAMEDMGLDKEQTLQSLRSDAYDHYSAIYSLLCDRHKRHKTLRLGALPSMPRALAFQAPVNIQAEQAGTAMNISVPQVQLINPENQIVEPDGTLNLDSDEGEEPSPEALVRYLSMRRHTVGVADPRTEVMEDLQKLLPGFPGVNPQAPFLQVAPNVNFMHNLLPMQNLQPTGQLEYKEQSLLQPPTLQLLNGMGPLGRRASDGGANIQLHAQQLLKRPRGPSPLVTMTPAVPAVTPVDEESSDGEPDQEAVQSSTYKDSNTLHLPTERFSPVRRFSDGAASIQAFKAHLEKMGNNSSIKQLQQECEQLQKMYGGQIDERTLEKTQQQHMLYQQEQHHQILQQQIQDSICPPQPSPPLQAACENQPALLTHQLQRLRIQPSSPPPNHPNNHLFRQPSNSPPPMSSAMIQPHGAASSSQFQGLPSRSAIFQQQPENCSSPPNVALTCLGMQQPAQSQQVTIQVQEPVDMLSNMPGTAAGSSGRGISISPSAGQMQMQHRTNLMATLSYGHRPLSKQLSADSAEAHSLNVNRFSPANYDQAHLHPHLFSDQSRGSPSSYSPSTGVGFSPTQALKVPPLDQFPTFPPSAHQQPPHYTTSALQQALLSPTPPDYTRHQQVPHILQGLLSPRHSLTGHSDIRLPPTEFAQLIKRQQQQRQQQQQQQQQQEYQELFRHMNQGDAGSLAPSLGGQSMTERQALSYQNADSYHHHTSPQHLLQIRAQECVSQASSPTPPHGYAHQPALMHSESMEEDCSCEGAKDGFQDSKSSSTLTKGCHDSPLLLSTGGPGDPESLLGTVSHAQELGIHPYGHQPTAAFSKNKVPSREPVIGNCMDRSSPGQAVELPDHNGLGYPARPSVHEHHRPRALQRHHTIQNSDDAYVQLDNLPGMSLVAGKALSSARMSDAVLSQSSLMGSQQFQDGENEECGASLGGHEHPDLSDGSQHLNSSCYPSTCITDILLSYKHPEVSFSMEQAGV
SIK1, sequence (P57059 whole entry): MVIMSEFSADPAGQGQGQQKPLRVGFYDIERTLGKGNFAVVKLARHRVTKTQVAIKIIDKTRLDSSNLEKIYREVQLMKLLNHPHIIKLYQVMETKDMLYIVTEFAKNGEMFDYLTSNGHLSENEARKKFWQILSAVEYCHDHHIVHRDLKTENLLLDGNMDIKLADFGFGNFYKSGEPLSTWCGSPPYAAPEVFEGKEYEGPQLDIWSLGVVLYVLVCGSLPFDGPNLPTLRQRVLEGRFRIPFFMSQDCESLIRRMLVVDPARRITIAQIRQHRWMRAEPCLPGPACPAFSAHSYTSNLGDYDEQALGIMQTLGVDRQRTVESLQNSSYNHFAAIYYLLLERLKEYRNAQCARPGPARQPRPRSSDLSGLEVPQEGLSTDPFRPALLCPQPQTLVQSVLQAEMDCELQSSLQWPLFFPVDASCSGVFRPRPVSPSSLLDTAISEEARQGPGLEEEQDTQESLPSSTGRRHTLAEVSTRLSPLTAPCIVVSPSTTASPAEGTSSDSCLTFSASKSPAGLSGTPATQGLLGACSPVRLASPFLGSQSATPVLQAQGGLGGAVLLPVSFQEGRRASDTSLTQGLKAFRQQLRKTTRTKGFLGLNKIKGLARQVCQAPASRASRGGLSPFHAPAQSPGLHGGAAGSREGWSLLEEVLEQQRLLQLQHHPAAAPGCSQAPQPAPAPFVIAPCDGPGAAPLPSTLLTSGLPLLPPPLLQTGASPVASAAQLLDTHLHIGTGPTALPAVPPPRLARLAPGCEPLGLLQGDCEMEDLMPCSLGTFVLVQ
SIK2, sequence (Q9H0K1 whole entry): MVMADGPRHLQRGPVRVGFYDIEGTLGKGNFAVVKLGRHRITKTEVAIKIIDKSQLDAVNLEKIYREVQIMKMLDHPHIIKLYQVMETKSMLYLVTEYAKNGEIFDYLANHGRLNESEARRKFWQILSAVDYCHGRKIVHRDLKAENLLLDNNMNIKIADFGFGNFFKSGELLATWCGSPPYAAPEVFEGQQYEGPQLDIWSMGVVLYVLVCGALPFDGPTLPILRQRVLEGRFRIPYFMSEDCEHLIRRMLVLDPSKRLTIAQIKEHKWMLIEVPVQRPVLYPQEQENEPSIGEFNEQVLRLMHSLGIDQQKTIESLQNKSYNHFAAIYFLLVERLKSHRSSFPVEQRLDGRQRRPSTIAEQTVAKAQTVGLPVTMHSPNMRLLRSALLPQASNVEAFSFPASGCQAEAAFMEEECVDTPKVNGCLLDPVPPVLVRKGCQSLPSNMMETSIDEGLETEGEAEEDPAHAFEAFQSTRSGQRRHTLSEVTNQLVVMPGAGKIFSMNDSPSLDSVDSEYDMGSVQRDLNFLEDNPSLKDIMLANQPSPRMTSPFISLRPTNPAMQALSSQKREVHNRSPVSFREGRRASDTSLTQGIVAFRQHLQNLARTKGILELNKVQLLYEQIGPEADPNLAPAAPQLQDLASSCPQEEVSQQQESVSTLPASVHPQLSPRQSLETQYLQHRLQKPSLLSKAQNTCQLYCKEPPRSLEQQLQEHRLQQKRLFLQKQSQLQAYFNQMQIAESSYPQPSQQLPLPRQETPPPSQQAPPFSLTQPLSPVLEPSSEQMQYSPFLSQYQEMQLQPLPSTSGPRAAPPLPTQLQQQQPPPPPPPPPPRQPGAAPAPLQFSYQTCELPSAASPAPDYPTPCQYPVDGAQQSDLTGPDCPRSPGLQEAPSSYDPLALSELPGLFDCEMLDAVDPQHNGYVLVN

Row | Compound | IC50 (SIK2) [µM] | IC50 (SIK3) [µM] | IC50 (SIK1) [µM]
1 | Cc1ccc(Nc2ccc3c(c2)ncn3-c2ccc(C(C)O)c(OC3CNCC3(F)F)n2)nn1 (stereo not drawn) [Example 393, 1-[2-(4,4-difluoropyrrolidin-3-yl)oxy-6-[5-[(6-methylpyridazin-3-yl)amino]benzimidazol-1-yl]-3-pyridyl]ethanol] | 0.0252 | 0.0055 | 0.75
2 | COc1cc2c(cc1Nc1cc3c(nn1)CCOC3)ncn2-c1ccc(C(C)O)c(-n2nc(C#N)cc2C)n1 (stereo not drawn) [Example 394, 1-[6-[5-(7,8-dihydro-5~{H}-pyrano[4,3-c]pyridazin-3-ylamino)-6-methoxy-benzimidazol-1-yl]-3-(1-hydroxyethyl)-2-pyridyl]-5-methyl-pyrazole-3-carbonitrile] | 0.0003 | 0.0006 | 0.013
3 | Cc1ccc(Nc2ccc3c(c2)ncn3-c2ccc(C(C)O)c(-c3cn(CC(F)CF)nc3C)n2)nn1 (stereo not drawn) [Example 399, 1-[2-[1-(2,3-difluoropropyl)-3-methyl-pyrazol-4-yl]-6-[5-[(6-methylpyridazin-3-yl)amino]benzimidazol-1-yl]-3-pyridyl]ethanol] | 0.0006 | 0.001 | 0.039
4 | Cc1ccc(Nc2cc3ncn(-c4ccc([C@H](C)O)c(-n5nc(C#N)cc5C)n4)c3cc2OC(F)F)nn1 [Example 402, 1-[6-[6-(difluoromethoxy)-5-[(6-methylpyridazin-3-yl)amino]benzimidazol-1-yl]-3-[(1S)-1-hydroxyethyl]-2-pyridyl]-5-methyl-pyrazole-3-carbonitrile] | 0.0002 | 0.0003 | 0.005
5 | Cc1ccc(Nc2ccc3c(c2)ncn3-c2ccc(C(C)O)c(-n3nc(OC(F)F)cc3C(F)F)n2)nn1 (stereo not drawn) [Example 404, 1-[2-[3-(difluoromethoxy)-5-(difluoromethyl)pyrazol-1-yl]-6-[5-[(6-methylpyridazin-3-yl)amino]benzimidazol-1-yl]-3-pyridyl]ethanol] | 0.0005 | 0.0005 | 0.041
6 | Cc1ccc(Nc2cc3c(cc2CC2COC2)ncn3-c2ccc(C(C)O)c(-n3nc(OC(F)F)cc3C)n2)nn1 (stereo not drawn) [Example 406, 1-[2-[3-(difluoromethoxy)-5-methyl-pyrazol-1-yl]-6-[6-[(6-methylpyridazin-3-yl)amino]-5-(oxetan-3-ylmethyl)benzimidazol-1-yl]-3-pyridyl]ethanol] | 0.0134 | 0.144 | 0.047
7 | Cc1ccc(Nc2cc3ncn(-c4ccc(C(C)O)c(-n5nc(OC(F)F)cc5C)n4)c3cc2CC2COC2)nn1 (stereo not drawn) [Example 407, 1-[2-[3-(difluoromethoxy)-5-methyl-pyrazol-1-yl]-6-[5-[(6-methylpyridazin-3-yl)amino]-6-(oxetan-3-ylmethyl)benzimidazol-1-yl]-3-pyridyl]ethanol] | 0.0129 | 0.0229 | 0.321
8 | N-[1-[6-[3-(difluoromethyl)-5-methyl-pyrazol-1-yl]-5-(1-hydroxyethyl)-2-pyridyl]-6-fluoro-benzimidazol-5-yl] cyclopropanecarboxamide [Example 361] | 0.0639 | 0.0511 | 0.321

More lines, in order of falling IC50 (SIK2), values ahead:

Row | IC50 (SIK2) [µM] | IC50 (SIK3) [µM] | IC50 (SIK1) [µM] | Compound
9 | 0.0247 | 0.0322 | 0.458 | Cc1ccc(Nc2cc3ncn(-c4ccc([C@@H](C)O)c(-n5nc(C#N)cc5C)n4)c3cc2OC(F)F)nn1 [Example 403, 1-[6-[6-(difluoromethoxy)-5-[(6-methylpyridazin-3-yl)amino]benzimidazol-1-yl]-3-[(1R)-1-hydroxyethyl]-2-pyridyl]-5-methyl-pyrazole-3-carbonitrile]
10 | 0.0205 | 0.172 | 0.037 | COc1cc(C(F)F)nn1-c1nc(-n2cnc3ccc(Nc4ccc(C)nn4)cc32)ccc1C(C)O (stereo not drawn) [Example 397, 1-[2-[3-(difluoromethyl)-5-methoxy-pyrazol-1-yl]-6-[6-[(6-methylpyridazin-3-yl)amino]benzimidazol-1-yl]-3-pyridyl]ethanol]
11 | 0.0198 | 0.15 | 0.039 | Cc1ccc(Nc2ccc3ncn(-c4ccc(C(C)O)c(-n5nc(OC(F)F)cc5C(F)F)n4)c3c2)nn1 (stereo not drawn) [Example 405]
12 | 0.0135 | 0.0056 | 1.12 | Cc1ccc(Nc2ccc3c(c2)ncn3-c2ccc(C(C)O)c(-c3cc(OC(F)F)nnc3C)n2)nn1 (stereo not drawn) [Example 396, 1-[2-[6-(difluoromethoxy)-3-methyl-pyridazin-4-yl]-6-[5-[(6-methylpyridazin-3-yl)amino]benzimidazol-1-yl]-3-pyridyl]ethanol]
13 | 0.0104 | 0.0042 | 1.36 | Cc1ccc(Nc2ccc3c(c2)ncn3-c2ccc(C(C)O)c(-c3nc(CC(F)(F)F)nn3C)n2)nn1 (stereo not drawn) [Example 401, 1-[6-[5-[(6-methylpyridazin-3-yl)amino]benzimidazol-1-yl]-2-[2-methyl-5-(2,2,2-trifluoroethyl)-1,2,4-triazol-3-yl]-3-pyridyl]ethanol]
14 | 0.0039 | 0.002 | 0.271 | COc1cc(C(F)F)nn1-c1nc(-n2cnc3cc(Nc4ccc(C)nn4)ccc32)ccc1C(C)O (stereo not drawn) [Example 398, 1-[2-[3-(difluoromethyl)-5-methoxy-pyrazol-1-yl]-6-[5-[(6-methylpyridazin-3-yl)amino]benzimidazol-1-yl]-3-pyridyl]ethanol]
15 | 0.0006 | 0.0078 | 0.002 | COc1cc2c(cc1Nc1cnc(C)nc1)ncn2-c1ccc([C@H](C)O)c(-n2nc(OC(F)F)cc2C)n1 [Example 400, (1S)-1-[2-[3-(difluoromethoxy)-5-methyl-pyrazol-1-yl]-6-[6-methoxy-5-[(2-methylpyrimidin-5-yl)amino]benzimidazol-1-yl]-3-pyridyl]ethanol]

Source: US20240383875A1, “Benzimidazole Pyridine Derivatives” (Hoffmann-La Roche Inc., priority 2022, published 2024)
